From US20260123631A1, “NATURAL PORPHIN SALT AND USE THEREOF AS PLANT GROWTH REGULATOR AND PLANT IMMUNITY INDUCER” (NANJING BOSTEC BIOLOGICAL ENGINEERING CO., LTD, priority 2022, published 2026) come the findings set out here.

Data set [1] in a line: Dilution and pH determination for sample solutions. Type of data set: physicochemical. As to the method: Method: 0.2500 g of a sample was accurately weighed and added to a 25 mL volumetric flask, dissolved with purified water, and diluted to a specified scale to prepare a 1.00% (10,000.0 ppm) initial solution. The initial solution was diluted with purified water in different ratios to prepare a series of solutions with a concentration of 1,000.0 ppm to 0.1 ppm. A pH value of each sample was determined three times.

A short description of data set [2]: Stability of sample solutions in the dark/under light. Type of data set: physicochemical. As to the method: Determination: An appropriate amount of a salt sample was taken, dissolved with water, and diluted to prepare a test solution with a concentration of about 10 ppm. An acidic reference substance (extremely-insoluble in water) was prepared with a 30% to 50% ethanol aqueous solution into a test solution with a concentration of about 10 ppm.
Each test solution was scanned by an ultraviolet spectrophotometer (at 0 h) for absorbance in a range of 200 nm to 800 nm immediately after being prepared. Then a test solution of each sample was divided into two parts. One part was placed at room temperature of 25° C. in the dark, and the other part was placed under light with a light intensity of 30,000 lux. At 1 h, 2 h, and 3 h, a solution sample was collected and scanned for absorbance respectively.
An absorbance value of a maximum absorption peak at 0 h (starting) of each test solution was set as a relative content of 100%, and a ratio of an absorbance value at each time point to the absorbance value at 0 h was calculated to determine a relative content, %.

For data set [3], the target named is chlorophyllase. Put plainly: In vitro chlorophyllase-inhibiting activity test. Type of data set: biochemical, mung bean. The settings on record: substrate chlorophyll 120 ppm, sample 0.3 ppm to 30.0 ppm. The method, then: A chlorophyllase inhibition rate of a salt sample solution at each concentration was determined, and an IC50 value for a chlorophyllase inhibition activity of a salt sample was calculated.

The nature of data set [4]: Water solubility of the prepared salts. Type of data set: physicochemical.
For data set [5], the system named is mung bean seedlings. Put plainly: Inducing adventitious roots from hypocotyls of mung bean. The format is in vivo. The settings on record: day 7. The method, then: Test solution preparation: 8 mL of a commercially-available STANLEY universal hydroponic nutrient solution was taken and diluted with tap water to 3,200 mL (400-fold dilution) to produce a dilute nutrient solution. An appropriate amount of each of salt samples such as protoporphyrin disodium and potassium chlorhematin was weighed and prepared with the dilute nutrient solution into 0.010 ppm and 0.1 ppm sample test solutions, and 150 mL of each test solution was taken. 150 mL of the dilute nutrient solution was taken as a blank control. The test solutions and the control solution were placed in brown bottles, and the brown bottles were sealed with a black film. Mung bean seedlings with uniform growth and a seedling height of 7 cm to 8 cm were selected, and cut at 3 cm below a first true leaf node. 8 mung bean seedlings were inserted into each bottle (with roots removed) to make lower radicles soaked in a solution. Mung bean seedlings were treated at room temperature of 20° C. to 25° C. for 7 d in total, during which the solution was changed every 2 d. On day 2 to day 3 of the treatment, there was a significant difference. On day 7, the observation and determination were conducted. An average adventitious root number and an average total adventitious root length for each seedling were calculated, and results were shown in the following table: […]

The test system of data set [6] is wheat. As to the kind of experiment: Spraying on wheat to increase a yield. Type of data set: in vivo, wheat (Huaimai 35). As to the method:
Crop: Huaimai 35. […] On Jun. 11, 2021, the harvesting was conducted throughout the field at a time.

The subject of data set [7] is mosaic virus. Put plainly: Controlling diseases in tobacco by spraying. Type of data set: in vivo, tobacco (Yunyan 87). To be noted: 0.20 ppm sprayed twice, 30 L/mu. From the text: For each treatment, 4 plots relatively scattered were selected from the field, with each plot of 50 m^2. An agent was sprayed twice around May 28 and June 4 during a root-spreading stage (12 leaves to 14 leaves) after tobacco transplanting, respectively. A same spraying volume (30 L/mu) was adopted for each treatment. During the spraying operation, each leaf surface should be sprayed evenly without dead corners left.
On July 15, tobacco plants in all treatment plots were surveyed. An incidence grading survey was conducted according to the Grade and investigation method of tobacco diseases and insect pests GB/T23222-2008, and an incidence rate and a disease index were counted for each treatment plot.

[8] abbreviates: under light 30,000 lux, 1 h, salts in water, acidic reference in 30% to 50% ethanol.
[9] abbreviates: under light 30,000 lux, 2 h, salts in water, acidic reference in 30% to 50% ethanol.
[10] abbreviates: under light 30,000 lux, 3 h, salts in water, acidic reference in 30% to 50% ethanol.
[11] abbreviates: 3 mg/mu sprayed 3 times (0.2, 0.1, 0.1 ppm).

Take magnesium iron chlorophyllin: the pH result is given as “(6.94)” in data set [1] (0.1 ppm in purified water); “(7.11)” in data set [1] (1.0 ppm in purified water); “(7.40)” in data set [1] (10.0 ppm in purified water); “(7.65)” in data set [1] (20.0 ppm in purified water); “(7.78)” in data set [1] (30.0 ppm in purified water); “(8.18)” in data set [1] (100.0 ppm in purified water). The Relative content stood at 71.60% in data set [2] (setting [8]), 62.44% in data set [2] (setting [9]) and 63.14% in data set [2] (setting [10]). Also, the “IC50 for chlorophyllase inhibition activity” value in data set [3] is 5.26 ppm.
On to potassium chlorin [Example 52], for which the solubility in water entry in data set [4] was “easily soluble”. The Relative content in data set [2] (setting [8]) came out at 60.05%; in data set [2] (setting [9]), 46.81%; in data set [2] (setting [10]), 42.89%. Moreover, in data set [3], the “IC50 for chlorophyllase inhibition activity” value is reported as 5.98 ppm.
The corresponding values for zinc iron chlorin [Example 28] are “slightly soluble”, 71.19%, 65.23%, 61.37% and 5.66 ppm.
With `C=CC1=C(C)c2cc3[nH]c(cc4nc(cc5[nH]c(cc1n2)c(C)c5CCC(=O)O)C(CCC(=O)O)=C4C)c(C)c3C=C` [Protoporphyrin disodium, protoporphyrin disodium, reference compound], the pH result is given as “(6.61)” in data set [1] (0.1 ppm in purified water); “(6.67)” in data set [1] (1.0 ppm in purified water); “(7.21)” in data set [1] (10.0 ppm in purified water); “(7.37)” in data set [1] (20.0 ppm in purified water); “(7.50)” in data set [1] (30.0 ppm in purified water); “(8.05)” in data set [1] (100.0 ppm in purified water). Moreover, the results for the pH result in data set [1] (1000.0 ppm in purified water) and in data set [1] (10000.0 ppm in purified water) were “(9.25)” and “(10.60)”, respectively. Besides, the Adventitious root number is 9.61 root/seedling in data set [5] (0.01 ppm) and 9.77 root/seedling in data set [5] (0.1 ppm). The “Total adventitious root length” value in data set [5] (0.01 ppm) is recorded as 20.74 cm/seedling; in data set [5] (0.1 ppm), 21.30 cm/seedling. Besides, the Relative content in data set [2] (setting [8]) is given as 63.47%; in data set [2] (setting [9]) it was 62.74%; in data set [2] (setting [10]), 57.05%.
Regarding manganese chlorin [Example 59], in data set [4], the solubility in water entry is “slightly soluble”. Besides, the values for the Relative content in data set [2] (setting [8]), in data set [2] (setting [9]) and in data set [2] (setting [10]) were 44.94%, 40.28% and 34.21%, respectively. Moreover, the “IC50 for chlorophyllase inhibition activity” value in data set [3] worked out at 6.23 ppm.
For manganese iron chlorin [Example 27], in that order: “slightly soluble”, 72.13%, 68.26%, 63.87% and 5.20 ppm.
For “copper copper chlorophyllin [Example 51]”, in that order: “slightly soluble”, 98.85%, 97.47%, 96.78% and 13.70 ppm.
As to iron chlorin [reference compound], the “Actual yield per mu” value in data set [6] (setting [11]) came to 586.9 kg. Besides, in data set [6] (setting [11]), the “Ear number per mu” value was 31.5 10,000. The “Grain number per ear” value in data set [6] (setting [11]) turned out to be 34.6 grains/ear. In addition, the Thousand-grain weight in data set [6] (setting [11]) stood at 53.9 g. In addition, the “Yield increase rate per mu” value in data set [6] (3 mg/mu sprayed 3 times, versus clear water) came to 4.99%. Further, the Disease index in data set [7] is 8.90. This compound displayed a Relative control effect in data set [7] of 65.57%. Moreover, the Relative content in data set [2] (in the dark, 25° C., 0 h) is 100.0%; in data set [2] (in the dark, 25° C., 1 h) it was 99.25%; in data set [2] (in the dark, 25° C., 2 h), 99.26%; in data set [2] (in the dark, 25° C., 3 h) it was 99.20%; in data set [2] (under light 30,000 lux, 0 h), 100.00%; in data set [2] (setting [8]), 31.04%. The Relative content was 28.12% in data set [2] (setting [9]) and 23.73% in data set [2] (setting [10]).
Turning to zinc copper chlorophyllin [Example 50], the solubility in water result in data set [4] was “slightly soluble”. Besides, the values for the Relative content in data set [2] (setting [8]), in data set [2] (setting [9]) and in data set [2] (setting [10]) were 69.84%, 65.37% and 60.04%, respectively. Besides, in data set [3], the “IC50 for chlorophyllase inhibition activity” value was 14.19 ppm.
sodium chlorin [Example 53]: the solubility in water entry in data set [4] is “easily soluble”. The Relative content in data set [2] (setting [8]) stood at 41.71%; in data set [2] (setting [9]), 30.78%; in data set [2] (setting [10]), 26.96%. Moreover, the “IC50 for chlorophyllase inhibition activity” value in data set [3] is recorded as 6.03 ppm.
For “potassium copper chlorophyllin [Example 43]”, in that order: “easily soluble”, 83.53%, 77.11%, 78.11% and 12.89 ppm.
For copper iron chlorophyllin [Example 34], in that order: “slightly soluble”, 72.13%, 68.58%, 65.03% and 5.04 ppm.
The corresponding values for “potassium iron chlorophyllin [Example 30]” are “easily soluble”, 72.04%, 65.63%, 57.54% and 5.09 ppm.
With copper chlorin [Example 61], the solubility in water entry in data set [4] was “slightly soluble”. The Relative content was determined as 85.27% in data set [2] (setting [8]), 82.15% in data set [2] (setting [9]) and 80.17% in data set [2] (setting [10]). In addition, the “IC50 for chlorophyllase inhibition activity” value in data set [3] was determined as 6.18 ppm.
The corresponding values for zinc zinc chlorophyllin [Example 41] are “slightly soluble”, 71.62%, 66.31%, 63.93% and 18.77 ppm.
For “manganese copper chlorophyllin [Example 47]”, in that order: “soluble”, 76.34%, 72.11%, 67.37% and 13.85 ppm.
